Measurements from ChEMBL document CHEMBL3132858, “6-Alkyl-, 6-aryl- or 6-hetaryl-7-deazapurine ribonucleosides as inhibitors of human or MTB adenosine kinase and potential antimycobacterial agents” (Medchemcomm, 2013).
The source made the active and inactive calls. The rule behind the calls is not given here.

What was measured:
[1] = Cytotoxicity against human BJ cells after 72 hrs by MTT assay; type: cell-based
Adenosine kinase [2] = biological target: T1, Adenosine kinase (Homo sapiens, UniProt P55263); assay: Inhibition of human ADK using [3H]-adenosine by scintillation counting method
Target sequence in this assay (P55263 whole entry): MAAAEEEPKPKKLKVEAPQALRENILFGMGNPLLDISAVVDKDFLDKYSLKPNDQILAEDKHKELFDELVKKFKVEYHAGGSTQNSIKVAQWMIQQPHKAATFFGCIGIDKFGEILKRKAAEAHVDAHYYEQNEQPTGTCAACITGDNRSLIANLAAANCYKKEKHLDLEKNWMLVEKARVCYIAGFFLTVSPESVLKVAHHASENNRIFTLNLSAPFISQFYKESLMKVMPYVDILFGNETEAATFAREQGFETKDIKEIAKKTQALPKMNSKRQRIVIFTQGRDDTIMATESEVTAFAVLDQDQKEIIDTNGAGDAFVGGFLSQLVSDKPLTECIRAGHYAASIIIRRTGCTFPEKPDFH

[3] = Cytotoxicity against human MRC5 cells after 72 hrs by MTT assay; type: cell-based
[4] = biological target: Adenosine kinase (Mycobacterium tuberculosis (strain CDC 1551 / Oshkosh)) (UniProt P9WID4); assay: Activity of Mycobacterium tuberculosis ADK assessed as compound conversion to 5'-phosphate form incubated at 37 degC for 20 mins by HPLC method
Chain of Adenosine kinase (Mycobacterium tuberculosis (strain CDC 1551 / Oshkosh)) (P9WID4 2-324 limits assumed): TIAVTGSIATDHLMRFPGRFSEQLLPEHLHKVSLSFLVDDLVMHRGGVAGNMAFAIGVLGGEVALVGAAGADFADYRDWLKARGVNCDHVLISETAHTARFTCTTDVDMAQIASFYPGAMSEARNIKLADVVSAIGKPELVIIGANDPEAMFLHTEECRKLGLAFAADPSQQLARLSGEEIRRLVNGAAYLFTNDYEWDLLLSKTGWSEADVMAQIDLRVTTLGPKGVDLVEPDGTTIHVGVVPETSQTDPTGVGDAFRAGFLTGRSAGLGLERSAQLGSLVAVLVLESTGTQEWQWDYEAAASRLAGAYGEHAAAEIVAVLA

Adenosine kinase [5] = biological target: T1, Adenosine kinase; assay: Activity of human ADK assessed as compound conversion to 5'-phosphate form incubated at 37 degC for 20 mins by HPLC method; design: concentration or dose not given beside the values
Target sequence in this assay (P55263 2-362 limits assumed): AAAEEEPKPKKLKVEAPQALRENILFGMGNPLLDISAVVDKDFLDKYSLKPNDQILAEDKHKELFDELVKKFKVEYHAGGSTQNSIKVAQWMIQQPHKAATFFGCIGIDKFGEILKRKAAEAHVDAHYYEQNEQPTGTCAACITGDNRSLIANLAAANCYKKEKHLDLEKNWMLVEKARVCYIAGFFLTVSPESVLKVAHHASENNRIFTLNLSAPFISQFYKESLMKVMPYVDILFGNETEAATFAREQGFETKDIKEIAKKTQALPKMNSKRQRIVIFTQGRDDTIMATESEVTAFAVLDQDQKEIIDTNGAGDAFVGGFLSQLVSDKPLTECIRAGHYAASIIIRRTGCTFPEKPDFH

Adenosine kinase [6] = biological target: Adenosine kinase (Mycobacterium tuberculosis (strain CDC 1551 / Oshkosh), UniProt P9WID4); assay: Inhibition of Mycobacterium tuberculosis ADK using [3H]-adenosine by scintillation counting method
Chain of Adenosine kinase (Mycobacterium tuberculosis (strain CDC 1551 / Oshkosh), UniProt P9WID4) (P9WID4 whole entry): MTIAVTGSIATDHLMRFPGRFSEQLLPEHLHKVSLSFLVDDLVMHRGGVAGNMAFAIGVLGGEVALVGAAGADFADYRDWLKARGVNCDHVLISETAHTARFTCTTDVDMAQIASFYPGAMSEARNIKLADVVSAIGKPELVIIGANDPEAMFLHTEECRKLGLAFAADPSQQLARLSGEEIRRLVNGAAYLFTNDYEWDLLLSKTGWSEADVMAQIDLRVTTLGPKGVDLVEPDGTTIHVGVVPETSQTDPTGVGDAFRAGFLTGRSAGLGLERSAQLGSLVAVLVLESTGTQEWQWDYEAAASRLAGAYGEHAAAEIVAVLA

SMILES | CC50 at 72 h [1] [nM] | IC50 (Adenosine kinase [2]) [nM] | CC50 at 72 h [3] [nM] | Activity [4] | Activity (Adenosine kinase [5]) [%] | IC50 (Adenosine kinase [6]) [nM]
OC[C@H]1O[C@@H](n2cc(F)c3c(-c4ccc[nH]4)ncnc32)[C@H](O)[C@@H]1O | 2990 | > 10000 | 44400 | inactive | 76 | 70
OC[C@H]1O[C@@H](n2ccc3c(-c4c[nH]cn4)ncnc32)[C@H](O)[C@@H]1O | 210 | > 10000 | > 50000 | inactive | 28 | 780
OC[C@H]1O[C@@H](n2ccc3c(-c4ccccn4)ncnc32)[C@H](O)[C@@H]1O | 1740 | > 10000 | > 50000 | inactive | 39 | 120
OC[C@H]1O[C@@H](n2ccc3c(-c4ccco4)ncnc32)[C@H](O)[C@@H]1O | 230 | 1300 | 11800 | inactive | 56 | 320
OC[C@H]1O[C@@H](n2ccc3c(-c4ccsc4)ncnc32)[C@H](O)[C@@H]1O | 21300 | > 10000 | > 50000 | inactive | 56 | 195
OC[C@H]1O[C@@H](n2cc(F)c3c(-c4c[nH]cn4)ncnc32)[C@H](O)[C@@H]1O | > 50000 | > 20000 | > 50000 | inactive | 11 | 1000
OC[C@H]1O[C@@H](n2ccc3c(-c4ccc(F)cc4)ncnc32)[C@H](O)[C@@H]1O | > 50000 | > 10000 | > 50000 | inactive | 17 | 80
